Reference: PubChem BioAssay AID256 (DTP/NCI, 2004)
Values joined by “and” are separate entries in the source; they are usually repeats but may differ in a detail not shown here. Identical values can stand only once. Toxic doses and inconclusive results are not listed.

Test system: CD2F1 mice, L1210 leukemia ip, survival T/C
Test: NCI In Vivo Anticancer Drug Screen. Data for tumor model L1210 Leukemia (intraperitoneal) in CD2F1 (CDF1) mice
Settings: higher = longer survival
Procedure, shortened: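 Implant tumor; dose compound or vehicle; measure endpoint in both groups; report treated divided by control.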

[1] = endpoint: mean survival time, dose: 12.5 mg/kg/injection, schedule: Q04DX003 (ip), vehicle: saline with Tween-80
[2] = endpoint: mean survival time, dose: 25.0 mg/kg/injection, schedule: Q04DX003 (ip), vehicle: saline with Tween-80
[3] = endpoint: mean survival time, dose: 50.0 mg/kg/injection, schedule: Q04DX003 (ip), vehicle: saline with Tween-80
[4] = endpoint: mean survival time, dose: 50.0 mg/kg/injection, schedule: Q01DX009 (ip), vehicle: saline
[5] = endpoint: mean survival time, dose: 100.0 mg/kg/injection, schedule: Q01DX009 (ip), vehicle: saline
[6] = endpoint: mean survival time, dose: 12.5 mg/kg/injection, schedule: Q04DX003 (ip), vehicle: saline
[7] = endpoint: mean survival time, dose: 25.0 mg/kg/injection, schedule: Q04DX003 (ip), vehicle: saline
[8] = endpoint: mean survival time, dose: 50.0 mg/kg/injection, schedule: Q04DX003 (ip), vehicle: saline
[9] = endpoint: mean survival time, dose: 100.0 mg/kg/injection, schedule: Q04DX003 (ip), vehicle: saline with Tween-80
[10] = endpoint: mean survival time, dose: 100.0 mg/kg/injection, schedule: Q04DX003 (ip), vehicle: saline
[11] = endpoint: mean survival time, dose: 100.0 mg/kg/injection, schedule: Q01DX009 (ip), vehicle: saline with Tween-80
[12] = endpoint: mean survival time, dose: 200.0 mg/kg/injection, schedule: Q01DX009 (ip), vehicle: saline with Tween-80
[13] = endpoint: mean survival time, dose: 400.0 mg/kg/injection, schedule: Q01DX009 (ip), vehicle: saline with Tween-80
[14] = endpoint: mean survival time, dose: 100.0 mg/kg/injection, schedule: Q04DX002 (ip), vehicle: saline with Tween-80
[15] = endpoint: mean survival time, dose: 200.0 mg/kg/injection, schedule: Q04DX002 (ip), vehicle: saline with Tween-80
[16] = endpoint: mean survival time, dose: 400.0 mg/kg/injection, schedule: Q04DX002 (ip), vehicle: saline with Tween-80
[17] = endpoint: mean survival time, dose: 200.0 mg/kg/injection, schedule: Q04DX003 (ip), vehicle: saline with Tween-80
[18] = endpoint: mean survival time, dose: 400.0 mg/kg/injection, schedule: Q04DX003 (ip), vehicle: saline with Tween-80
[19] = endpoint: mean survival time, dose: 12.5 mg/kg/injection, schedule: Q01DX009 (ip), vehicle: saline

Nc1ccn(C2CC(N)C(CO)O2)c(=O)n1 (centres undefined)
T/C (endpoint: median survival time, dose: 5.0 mg/kg/injection, schedule: Q06HX018 (ip), vehicle: water): 150 % of control
T/C (endpoint: median survival time, dose: 10.0 mg/kg/injection, schedule: Q06HX018 (ip), vehicle: water): 154 % of control and 162 % of control
T/C (endpoint: median survival time, dose: 20.0 mg/kg/injection, schedule: Q06HX018 (ip), vehicle: water): 198 % of control and 200 % of control
T/C (endpoint: median survival time, dose: 40.0 mg/kg/injection, schedule: Q06HX018 (ip), vehicle: water): 152 % of control and 174 % of control

Cc1cc(Br)c2nsnc2c1[N+](=O)[O-]
T/C (endpoint: median survival time, dose: 25.0 mg/kg/injection, schedule: Q01DX009 (ip), vehicle: saline with Tween-80): 97 % of control
T/C (endpoint: median survival time, dose: 50.0 mg/kg/injection, schedule: Q01DX009 (ip), vehicle: saline with Tween-80): 100 % of control
T/C (endpoint: median survival time, dose: 100.0 mg/kg/injection, schedule: Q01DX009 (ip), vehicle: saline with Tween-80): 101 % of control
T/C (endpoint: median survival time, dose: 200.0 mg/kg/injection, schedule: Q01DX009 (ip), vehicle: saline with Tween-80): 100 % of control
T/C (endpoint: median survival time, dose: 400.0 mg/kg/injection, schedule: Q01DX009 (ip), vehicle: saline with Tween-80): 101 % of control

CCOCc1cc([N+](=O)[O-])cc([N+](=O)[O-])c1O
T/C [1]: 98 % of control
T/C [2]: 98 % of control
T/C [3]: 100 % of control

CC(=O)C[n+]1ccccc1Sc1ccc(Cl)cc1
T/C (endpoint: median survival time, dose: 12.5 mg/kg/injection, schedule: Q01DX005 (ip), vehicle: saline with Tween-80): 100 % of control
T/C (endpoint: median survival time, dose: 25.0 mg/kg/injection, schedule: Q01DX005 (ip), vehicle: saline with Tween-80): 101 % of control
T/C (endpoint: median survival time, dose: 50.0 mg/kg/injection, schedule: Q01DX005 (ip), vehicle: saline with Tween-80): 97 % of control
T/C (endpoint: median survival time, dose: 100.0 mg/kg/injection, schedule: Q01DX005 (ip), vehicle: saline with Tween-80): 107 % of control

CCCC(=O)N(CC)CC
T/C [4]: 94 % of control
T/C [5]: 98 % of control
T/C (endpoint: mean survival time, dose: 200.0 mg/kg/injection, schedule: Q01DX009 (ip), vehicle: saline): 98 % of control

O=C(NCc1ccccc1)C1C2CC3OC(=O)C1C3C2 (centres undefined)
T/C [1]: 112 % of control
T/C [6]: 106 % of control
T/C [2]: 114 % of control
T/C [7]: 108 % of control
T/C [3]: 114 % of control
T/C [8]: 110 % of control
T/C [9]: 114 % of control
T/C [10]: 108 % of control

Clc1n[nH]c(Cl)n1
T/C (endpoint: mean survival time, dose: 25.0 mg/kg/injection, schedule: Q01DX009 (ip), vehicle: saline with Tween-80): 97 % of control
T/C (endpoint: mean survival time, dose: 50.0 mg/kg/injection, schedule: Q01DX009 (ip), vehicle: saline with Tween-80): 100 % of control
T/C [11]: 89 % of control
T/C [9]: 86 % of control

CC1(C)CCC(CC(=O)O)(CC(=O)O)CC1
T/C [11]: 105 % of control
T/C [12]: 104 % of control
T/C [13]: 104 % of control

C[CH2][Sn]1([CH2]C)[O]OC(c2ccccc2)[O]1 (centres undefined)
T/C (endpoint: mean survival time, dose: 0.78 mg/kg/injection, schedule: Q01DX009 (ip), vehicle: saline with Tween-80): 106 % of control
T/C (endpoint: mean survival time, dose: 1.56 mg/kg/injection, schedule: Q01DX009 (ip), vehicle: saline with Tween-80): 96 % of control
T/C (endpoint: mean survival time, dose: 3.12 mg/kg/injection, schedule: Q01DX009 (ip), vehicle: saline with Tween-80): 98 % of control
T/C (endpoint: mean survival time, dose: 6.25 mg/kg/injection, schedule: Q01DX009 (ip), vehicle: saline with Tween-80): 106 % of control
T/C (endpoint: mean survival time, dose: 12.5 mg/kg/injection, schedule: Q01DX009 (ip), vehicle: saline with Tween-80): 112 % of control

O=[N+]([O-])O.[In]
T/C (endpoint: mean survival time, dose: 1.25 mg/kg/injection, schedule: Q01DX009 (ip), vehicle: saline): 93 % of control
T/C (endpoint: mean survival time, dose: 2.5 mg/kg/injection, schedule: Q01DX009 (ip), vehicle: saline): 96 % of control
T/C (endpoint: mean survival time, dose: 5.0 mg/kg/injection, schedule: Q01DX009 (ip), vehicle: saline): 95 % of control
T/C (endpoint: mean survival time, dose: 10.0 mg/kg/injection, schedule: Q01DX009 (ip), vehicle: saline): 96 % of control

CS(=O)(=O)OCCN(CCOS(C)(=O)=O)c1ccc(N=Nc2ccccc2C(=O)O)cc1
T/C (endpoint: mean survival time, dose: 1.56 mg/kg/injection, schedule: Q01DX009 (ip), vehicle: Klucel (hydroxypropylcellulose) (HPC)): 124 % of control
T/C (endpoint: mean survival time, dose: 3.12 mg/kg/injection, schedule: Q01DX009 (ip), vehicle: Klucel (hydroxypropylcellulose) (HPC)): 155 % of control
T/C (endpoint: mean survival time, dose: 6.25 mg/kg/injection, schedule: Q01DX009 (ip), vehicle: Klucel (hydroxypropylcellulose) (HPC)): 176 % of control

NC(=S)N/N=C/c1ccc(OC(=O)COc2cc(Cl)c(Cl)cc2Cl)cn1
T/C [14]: 122 % of control
T/C [15]: 114 % of control
T/C [16]: 122 % of control

O=[As](O)(c1ccccc1)C1CCCCC1O (centres undefined)
T/C (endpoint: mean survival time, dose: 25.0 mg/kg/injection, schedule: Q01DX001 (ip), vehicle: saline with Tween-80): 98 % of control

CCOc1ccc(N=[N+]([O-])c2ccc(OCC)cc2)cc1
T/C [11]: 90 % of control
T/C [9]: 96 % of control
T/C [12]: 97 % of control
T/C [17]: 98 % of control
T/C [13]: 96 % of control
T/C [18]: 101 % of control

N/C=N/O
T/C (endpoint: mean survival time, dose: 66.0 mg/kg/injection, schedule: Q01DX009 (ip), vehicle: saline): 112 % of control
T/C [5]: 120 % of control and 110 % of control
T/C (endpoint: mean survival time, dose: 400.0 mg/kg/injection, schedule: Q01DX009 (ip), vehicle: saline): 114 % of control

CS(C)=O.CS(C)=O.[Cl][Rh]([Cl])([Cl])[Cl]
T/C [19]: 111 % of control
T/C [6]: 100 % of control
T/C (endpoint: mean survival time, dose: 25.0 mg/kg/injection, schedule: Q01DX009 (ip), vehicle: saline): 117 % of control
T/C [7]: 98 % of control
T/C [4]: 119 % of control
T/C [8]: 100 % of control
T/C [10]: 117 % of control

O=C(O)c1c(Cl)c(Cl)c(Cl)c(Cl)c1C(=O)O
T/C [14]: 97 % of control
T/C [15]: 101 % of control
T/C [16]: 105 % of control

COC(=O)Nc1ccccc1
T/C (endpoint: mean survival time, dose: 100.0 mg/kg/injection, schedule: Q04DX003 (ip), vehicle: saline + alcohol): 101 % of control
T/C (endpoint: mean survival time, dose: 200.0 mg/kg/injection, schedule: Q04DX003 (ip), vehicle: saline + alcohol): 98 % of control
T/C (endpoint: mean survival time, dose: 400.0 mg/kg/injection, schedule: Q04DX003 (ip), vehicle: saline + alcohol): 98 % of control

CC(=O)CC(=O)Nc1ccc(N=Nc2ccccc2)cc1
T/C [11]: 101 % of control
T/C [12]: 101 % of control

COc1ccccc1NC(=O)Oc1c(C)cccc1C
T/C [14]: 92 % of control
T/C [15]: 100 % of control
T/C [16]: 111 % of control

COc1ccc(OC)c(NC(=O)NCc2ccccc2Cl)c1
T/C [11]: 90 % of control
T/C [12]: 100 % of control
T/C [13]: 87 % of control

Cc1c[n+]([O-])ccc1Br
T/C (endpoint: mean survival time, dose: 25.0 mg/kg/injection, schedule: Q01DX009 (ip), vehicle: water): 94 % of control
T/C (endpoint: mean survival time, dose: 50.0 mg/kg/injection, schedule: Q01DX009 (ip), vehicle: water): 100 % of control
T/C (endpoint: mean survival time, dose: 100.0 mg/kg/injection, schedule: Q01DX009 (ip), vehicle: water): 88 % of control

O=P(N1CCOCC1)(N1CC1)N1CC1
T/C (endpoint: mean survival time, dose: 1.56 mg/kg/injection, schedule: Q01DX009 (ip), vehicle: saline): 103 % of control
T/C (endpoint: mean survival time, dose: 3.12 mg/kg/injection, schedule: Q01DX009 (ip), vehicle: saline): 111 % of control
T/C [19]: 180 % of control

CC(=O)Oc1ccc2c3c(ccc2c1)CCCC3
T/C (endpoint: mean survival time, dose: 25.0 mg/kg/injection, schedule: Q01DX009 (ip), vehicle: Klucel (hydroxypropylcellulose) (HPC)): 116 % of control
T/C (endpoint: mean survival time, dose: 50.0 mg/kg/injection, schedule: Q01DX009 (ip), vehicle: Klucel (hydroxypropylcellulose) (HPC)): 93 % of control
T/C (endpoint: mean survival time, dose: 100.0 mg/kg/injection, schedule: Q01DX009 (ip), vehicle: Klucel (hydroxypropylcellulose) (HPC)): 104 % of control

C1OC2OC3OCOC3C2O1 (centres undefined)
T/C [9]: 101 % of control
T/C [17]: 95 % of control
T/C [18]: 95 % of control

COc1ccc([N+](=O)[O-])cc1Br
T/C [9]: 100 % of control
T/C [17]: 102 % of control
T/C [18]: 102 % of control

O=C(O)CCC(NC(=O)OCc1ccccc1)C(=O)O (centres undefined)
T/C [11]: 98 % of control
T/C [12]: 94 % of control
T/C [13]: 96 % of control

Nc1c([N+](=O)[O-])ccc2ccccc12
T/C [11]: 95 % of control
T/C [9]: 93 % of control
T/C [12]: 93 % of control
T/C [17]: 93 % of control
T/C [13]: 92 % of control
T/C [18]: 92 % of control
